This is an account of results in patent US9012455B2, “Pharmaceutical compositions containing an indoyl isoquinoline containing compound and uses thereof” (The Regents of the University of California, priority 2006, dated 2015).

“And” between values parts separate entries of the source, which are not always exact repeats. Equal entries are not always repeated. Where two headings read alike, the source gives them in different places.

Assay [1] deals with T1, Rad51-BRC repeat binding (Homo sapiens, UniProt Q06609).
T1 sequence (Q06609 1-339): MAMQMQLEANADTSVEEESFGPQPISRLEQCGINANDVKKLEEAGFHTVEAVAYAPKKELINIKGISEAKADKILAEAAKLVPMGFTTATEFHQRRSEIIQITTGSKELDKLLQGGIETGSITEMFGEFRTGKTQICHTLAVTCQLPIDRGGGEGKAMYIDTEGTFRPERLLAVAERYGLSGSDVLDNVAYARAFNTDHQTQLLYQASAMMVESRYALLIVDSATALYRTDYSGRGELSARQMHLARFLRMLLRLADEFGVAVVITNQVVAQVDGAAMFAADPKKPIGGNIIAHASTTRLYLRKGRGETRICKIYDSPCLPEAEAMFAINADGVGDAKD
Nature of the assay: SPR (Biacore) competitive binding assay, solution competition format. Here is the method: Therefore, the 5-position of indole ring may provide a potential site for further modification. The inventors also noticed that there is a chiral center in the IBR compounds as marked by an asterisk in FIG. 1B. Initially, the inventors separated these two enantiomers by chiral HPLC (Regis Whelk-O1, Hexane:isopropanol=75:25) as shown in chromatogram of FIG. 1C and determined the absolute configuration by X-ray crystallography. […] Here, the inhibition of Rad51-BRC repeat binding was analyzed by SPR in a solution competition format.
Successful entities are then analyzed with Biacore's surface plasmon resonance (SPR) technique in a solution competition format to determine their median inhibitory concentration on Rad51. Briefly, the assays are performed on a Biacore 3000 (Biacore Inc.) using a Sensor chip NTA (Biacore Inc.) for capturing His-tagged Rad51 protein. The concentration of BRC protein is kept constant. Compounds are dissolved in DMSO at 20 mM and serially diluted in each BRC test sample. The assays are performed at 25° C. in running buffer (10 mM HEPES, 150 mM NaCl, 0.1% DMSO). Relative BRC-Rad51 binding percentage in the presence of inhibitors is calculated. The experiments are carried out in triplicate and averaged. The best-fit competitive binding curve is drawn and median inhibitory concentration of each candidate compound is obtained. The results of these assays are thought to help to establish a quantitative structure-activity relationship, which in turn guides further optimization of the positive hits.
To further determine the binding affinity of IBR2 to Rad51, the inventors then used a Biacore competitive binding assay.

In assay [2] the test system is Ba/F3-p210 cells. The assay is described as follows: median-effect and Combination Index analysis (Chou's method). Format: cell-based, murine. To be noted: Mus musculus, read-out: median-effect dose (Dm).
Assay [3] deals with Ba/F3 parental cells. Nature of the assay: Western blot of protein expression. To be noted: IBR2-treated. Format: cell-based, murine. Here is the method: To examine the consequence of the BCR-ABL/Stat5/Rad51 regulatory pathway, the protein expression as well as their phosphorylation states in IBR2-treated cells were analyzed by Western blot.
On the technique in general: A western blot detects proteins with antibodies after separation by electrophoresis.

Assay [4] has as its target T2, Rad51 (Homo sapiens, UniProt Q06609).
T2 sequence (Q06609 1-339): T1 sequence (Q06609 1-339)
The assay is described as follows: SPR compound pretreatment, immobilized Rad51. It is filed as binding. Here is the method: (§1) To determine whether it was Rad51 or BRC repeat that actually served as a direct target of these compounds, surface plasmon resonance (SPR) was employed to detect the inhibition of protein binding by compound pretreatment. In principle, one of the proteins was attached to the sensor chip, and IBR compounds were allowed to pass through the surface; then, the binding of the second protein was measured. If IBR compounds bind the immobilized protein, the binding of the second protein will be reduced; otherwise, the binding capacity of second protein will be mostly retained.

The subject of assay [5] is BRC repeat. Nature of the assay: SPR compound pretreatment, immobilized BRC repeat. Format: binding. On the procedure:
as §1

For assay [6], the system named is Ba/F3-p210 cells. The assay is described as follows: percentage of apoptotic cells. To be noted: 48 hours. It is filed as cell-based, murine. The source says:
Since Rad51 and BCR-ABL are in the same pathway essential for cell survival, it was contemplated that simultaneous treatment of Ba/F3-p210 cells with both inhibitors may synergistically enhance the cell death. […] Exemplary results are depicted in FIGS. 4A and 4B.

Assay [7] has as its system human blast crisis CML K562 cells. Nature of the assay: percentage of apoptotic cells. It is filed as cell-based.
The test system of assay [8] is Ba/F3-P210. The assay is described as follows: cell growth (viable cell count / XTT). It is filed as cell-based. To be noted: 0 to 20 μM, up to three days, dose-dependent. On the procedure:
(§2) The inventors also examined the effect of IBR2 on growth of Ba/F3 expressing wild type Bcr-Abl-P210 and Bcr-Abl mutant isoform T315I. […] FIG. 9 illustrates the effect of IBR2 on parental Ba/F3 cells and Ba/F3 cells expressing WT Bcr-Abl or Bcr-Abl mutant isoform T315I cells. […] After 72 hours of incubation, proliferation was measured by XTT-based method. Absorbance was measured at 490 nm in a microplate reader. Bars are SD, n=2.
(Tetrazolium assays rely on reduction of a dye to a coloured formazan, in cell work by metabolically active cells.)

The test system of assay [9] is Ba/F3-T315I. Nature of the assay: cell growth (viable cell count / XTT). It is filed as cell-based. Conditions: 0 to 20 μM, up to three days, dose-dependent. Here is the method:
as §2

For assay [10], the system named is Rad51 foci formation in MCF-7 breast cancer cells. Nature of the assay: IR-induced Rad51 foci formation assay. It is filed as cell-based.
Description: These compounds were then tested for their effects on the IR-induced Rad51 foci formation in MCF-7 breast cancer cells. […] These compounds were then tested for their effects on the IR-induced Rad51 foci formation in MCF-7 breast cancer cells as also described in WO 2006/044933.
The test system of assay [11] is Ba/F3 parental cells. The assay is described as follows: XTT growth inhibition. Format: cell-based, murine. Conditions: 48 hr.
The target of assay [12] is T3, BRC-RAD51 interaction (Homo sapiens, UniProt Q06609).
T3 construct: expressed in transfected cells; host or cells: yeast strain harboring a TetOp-driven URA3 gene
T3 sequence (Q06609 1-339): T1 sequence (Q06609 1-339)
Nature of the assay: inducible reverse yeast two-hybrid screening. It is filed as cell-based.
Excerpt: Briefly, two fusion proteins, the TetR-BRC fusion protein (TetR/NCB, constitutively expressed) and the Rad51-activation domain fusion protein (AD/Rad51, expressed under the GAL1 promoter), worked together as a transcriptional activator in a yeast strain harboring a TetOp-driven URA3 gene. The interaction between these two fusion proteins induced the expression of URA3 gene, and the toxic metabolite from 5-FOA in the medium caused cell death. If the small molecules tested inhibited TetR/BRC/AD/Rad51 interaction, URA3 expression was abolished and cells are allowed to grow.
The reverse yeast two-hybrid system is used to perform the second round screening of the modified small compounds. TetR/NCB fission protein which contains BRC1-4 repeats (TetR/NCB) are expressed constitutively; the expression of a RAD51-GAL4 Activation Domain fusion protein (AD/RAD51) is rendered galactose-inducible under GAL1 promoter. Yeast is grown on a galactose medium containing 5-FOA. The assay is performed on 96-well plates. Small molecule compounds are added into the medium at the concentration of 10 mM in the total volume of 100 ml. The compounds that can disrupt the BRC-RAD51 interaction are identified by the viability of the yeast.

In assay [13] the test system is Ba/F3-T315I cells. Nature of the assay: Western blot of protein expression. It is filed as cell-based, murine. Conditions: 20 μM IBR2 alone, within 12-24 hours. The text has this:
Direct targeting to Rad51 may provide a potential strategy to overcome this type of resistance. […] Next, the inventors examined the effects of IBR2 treatment on the protein expression levels in these cells by western blot.

The test system of assay [14] is Ba/F3-T315I cells. The assay is described as follows: survival of NOD/SCID mice injected with Ba/F3-T315I cells. Format: in vivo. To be noted: 100 mg/kg, 30 days, vs vehicle, p<0.01.
In assay [15] the test system is Ba/F3 cells expressing WT, T315I or E255K BCR-ABL. The assay is described as follows: annexin V positive cells (apoptosis). It is filed as cell-based, murine. Conditions: dose dependent. Here is the method: (§3) In CML cells, the constitutively active BCR-ABL is responsible for maintaining high levels of Rad51 activity by direct activation through phosphorylation and transcriptional up-regulation mediated by STAT5. It is therefore contemplated that inhibition of Rad51 activity by IBR2 may have detrimental effects on CML. To test this possibility, murine hematopoietic Ba/F3 progenitor cells expressing different versions of BCR-ABL (e.g., wild-type, T315I, and E255K) mutants were treated with IBR2 at indicated concentrations for 48 hr, and growth inhibition was then determined by XTT (sodium 3′-[1-(phenylaminocarbonyl)-3,4-tetrazolium]-bis(4-methoxy-6-nitro) benzene sulfonate) assay. […] To further test whether the growth inhibition was resulted from cell death or cytostatic effect of IBR2 treatment, the inventors then determined the percentages of annexin V positive cells, which is indicative of cell death, after IBR2 treatment.

Assay [16] relates to BCR-ABL-expressing Ba/F3 cells. The assay is described as follows: XTT growth inhibition. It is filed as cell-based, murine. Conditions: 48 hr. Here is the method: as §3
To examine the consequence of the BCR-ABL/Stat5/Rad51 regulatory pathway, the protein expression as well as their phosphorylation states in IBR2-treated cells were analyzed by Western blot. […] On the contrary, there was little effect on Ba/F3 parental cells. The decrease of Rad51 expression in IBR2-treated cells is consistent with the inventors′ earlier observation that IBR2 induces Rad51 degradation mediated by proteasome in breast cancer cells. […]

For assay [17], the system named is Ba/F3-T315I cells. Nature of the assay: induction of cell death. To be noted: 20 μM IBR2 alone. Format: cell-based, murine.
Assay [18] has as its target T2, Rad51. The assay is described as follows: gel filtration profile of Rad51 (multimerization). Format: biochemical. To be noted: data not shown. On the procedure: To test this possibility, the inventors then compared the gel filtration profile of Rad51 incubated in the presence or absence of IBR2. […] The inventors then aligned the 3D structure of IBR2 with the BRC4 hairpin structure and the Rad51 oligomerization motif together. […] Therefore, one possibility of the action mechanism is that IBR compounds, by mimicking Phe1524 of BRCA2, may block the entrance of the hydrophobic binding pocket on Rad51 core domain, and inhibit BRCA2/Rad51 interaction as well as Rad51 multimerization.
Background: In gel filtration, larger molecules generally elute earlier.

For assay [19], the system named is Ba/F3 cells expressing T315I BCR-ABL. Nature of the assay: XTT growth inhibition. It is filed as cell-based, murine. To be noted: Mus musculus, BaF3, 48 hr. Here is the method: as §3
Assay [20] has as its system Ba/F3 cells carrying BCR-ABL expression. The assay is described as follows: Western blot of BCR-ABL/Stat5/Rad51 pathway. Format: cell-based, murine. Here is the method:
To examine the consequence of the BCR-ABL/Stat5/Rad51 regulatory pathway, the protein expression as well as their phosphorylation states in IBR2-treated cells were analyzed by Western blot. […] On the contrary, there was little effect on Ba/F3 parental cells. The decrease of Rad51 expression in IBR2-treated cells is consistent with the inventors′ earlier observation that IBR2 induces Rad51 degradation mediated by proteasome in breast cancer cells. Furthermore, the inventors performed the same set of experiments using compound B6, which has no inhibitory activity to Rad51 in vitro.

Assay [21] has as its system K562 cells. The assay is described as follows: Western blot of protein expression. It is filed as cell-based, human. Conditions: imatinib, absence of IBR2. The source says: The inventors then examined the protein expression levels of Rad51, BCR-ABL and Stat5 by western blot analysis.
Assay [22] concerns Ba/F3-p210 cells. The assay is described as follows: Western blot of protein expression. It is filed as cell-based, murine. To be noted: 0.1-0.6 μM imatinib, absence of IBR2. The text has this:
The inventors then examined the effects of co-treatment on Rad51, BCR-ABL, and Stat5 protein expression levels as described above.

Where [23] appears, read: SPR, solution competition format, read-out: median inhibition concentration.

`O=S(=O)(Cc1ccccc1)N1C=Cc2ccccc2C1c1c[nH]c2ccccc12` (racemic) [IBR2]: the IC50 in assay [1] (setting [23]) was roughly 115 nM.

As for `O=S(=O)(Cc1ccccc1)N1C=Cc2ccccc2C1c1c[nH]c2ccccc12` (centres unmarked) [IBR2], the EC50 in assay [2] was 13900 nM. In addition, the “protein expression and phosphorylation” value in [3] was “little effect”. Further, the “binding of BRC repeat to immobilized Rad51 after compound pretreatment” value in assay [4] is “lost the ability to bind BRC repeat”. Further, in assay [5], the “binding of immobilized BRC repeat to Rad51 after compound pretreatment” value is listed as “did not affect”. The apoptotic cells result in assay [6] (IBR2 5 μM) was “about 1.7%”; in [6] (IBR2 10 μM) it was roughly 4.1%; in [6] (IBR2 15 μM alone), < 10% and ~12.6%; in assay [6] (IBR2 20 μM), roughly 57.1%. In addition, the apoptotic percentage in [7] (IBR2 15 μM alone) is listed as roughly 10%. In addition, the cell growth result in [8] and in assay [9] was “significantly inhibited the growth” each time. The “IR-induced Rad51 foci formation” value is recorded as “dramatically reduced Rad51 foci formation” in assay [10] and “positive” in assay [10] (listed as NS7798). Moreover, the proliferation result is on record as “much less” in assay [11] and “inhibited the proliferation” in [16]. The yeast two-hybrid screening result in assay [12] is listed as “positive”. The “protein expression levels of Rad51, BCR-ABL, p-BCR-ABL and p-Stat5” value in [13] is on record as “dramatically reduced”. In addition, the survival of mice result in assay [14] is reported as “significantly prolonged survivals”. The “apoptosis (annexin V positive cells)” value in assay [15] is given as “induced apoptosis”. Besides, the IC50 in assay [1] (Biacore competitive binding assay, read-out: IC50) was 110 nM; in assay [19] it was 12000 nM. Also, in assay [17], the cell death entry is recorded as “over 80%”. In assay [18], the “Rad51 elution profile (multimerization)” value is given as “major peak consistent with the molecular weight of a monomer”. In addition, the “Rad51, BCR-ABL and phosphorylated Stat5 (p-Stat5) levels” value in assay [20] was “dose-dependent decreases”. For the same compound, the “c-Abl, p-c-Abl and total Stat5 protein” value in [20] is “unchanged”.

Take `O=S(=O)(Cc1ccccc1)N1C=Cc2ccccc2[C@@H]1c1c[nH]c2ccccc12` [R-IBR2]: the IC50 in assay [1] (setting [23]) is roughly 1 nM.

`Cc1ccc(NC(=O)c2ccc(CN3CCN(C)CC3)cc2)cc1Nc1nccc(-c2cccnc2)n1` [imatinib]: the apoptotic cells entry in assay [6] (imatinib 0.1 μM) was “about 6.8%”; in assay [6] (imatinib 0.2 μM), ~7.6% and ~10%; in assay [6] (imatinib 0.4 μM) it was roughly 23.1%; in assay [6] (imatinib 0.6 μM), roughly 39.3%. The apoptotic percentage result in assay [7] (imatinib 0.1 μM) is “about 9.7%”; in [7] (imatinib 0.2 μM), roughly 11.8%; in assay [7] (imatinib 0.6 μM) it was roughly 28.1%. The “Rad51, BCR-ABL, p-BCR-ABL, p-Stat5 levels” value in assay [21] is “decreased in a dose dependent manner”. The values for the Stat5 protein level entry in assay [21] and in assay [22] were “did not affect” and “did not influence”, respectively. The “Rad51, BCR-ABL, p-BCR-ABL and p-Stat5 levels” value in [22] was “modestly decreased”.
